Measured values as given in ChEMBL document CHEMBL4145521, “Regioselective synthesis of 3,4-diaryl-5-unsubstituted isoxazoles, analogues of natural cytostatic combretastatin A4” (Eur J Med Chem, 2018).

Legend:
Format in all cases: functional
[1] = system: EKVX; assay: Cytotoxicity against human EKVX cells assessed as cell growth at 1 uM incubated for 48 hrs by sulforhodamine B assay relative to control; conditions: read-out: Activity
[2] = system: IGROV-1; assay: Cytotoxicity against human IGROV1 cells assessed as cell growth at 0.1 uM incubated for 48 hrs by sulforhodamine B assay relative to control; conditions: IGROV-1, 48 h, read-out: Activity
[3] = system: TK-10; assay: Cytotoxicity against human TK10 cells assessed as cell growth at 100 uM incubated for 48 hrs by sulforhodamine B assay relative to control; conditions: TK-10, 48 h, read-out: Activity
[4] = system: OVCAR-5; assay: Cytotoxicity against human OVCAR5 cells assessed as cell growth at 0.1 uM incubated for 48 hrs by sulforhodamine B assay relative to control; conditions: OVCAR-5, 48 h, read-out: Activity
[5] = system: NCI-H226; assay: Cytotoxicity against human NCI-H226 cells assessed as cell growth at 0.01 uM incubated for 48 hrs by sulforhodamine B assay relative to control; conditions: NCI-H226, 48 h, read-out: Activity
[6] = system: SK-MEL-2; assay: Cytotoxicity against human SK-MEL-2 cells assessed as cell growth at 1 uM incubated for 48 hrs by sulforhodamine B assay relative to control; conditions: SK-MEL-2, 48 h, read-out: Activity
[7] = system: OVCAR-4; assay: Cytotoxicity against human OVCAR4 cells assessed as cell growth at 1 uM incubated for 48 hrs by sulforhodamine B assay relative to control; conditions: OVCAR-4, 48 h, read-out: Activity
[8] = system: OVCAR-3; assay: Cytotoxicity against human OVCAR3 cells assessed as cell growth at 100 uM incubated for 48 hrs by sulforhodamine B assay relative to control; conditions: OVCAR-3, 48 h, read-out: Activity
[9] = system: MOLT-4; assay: Cytotoxicity against human MOLT4 cells assessed as cell growth at 10 uM incubated for 48 hrs by sulforhodamine B assay relative to control; conditions: MOLT-4, 48 h, read-out: Activity
[10] = system: HOP-62; assay: Cytotoxicity against human HOP62 cells assessed as cell growth at 0.01 uM incubated for 48 hrs by sulforhodamine B assay relative to control; conditions: HOP-62, 48 h, read-out: Activity
[11] = system: CCRF-CEM; assay: Cytotoxicity against human CCRF-CEM cells assessed as cell growth at 1 uM incubated for 48 hrs by sulforhodamine B assay relative to control; conditions: read-out: Activity
[12] = system: DU-145; assay: Cytotoxicity against human DU145 cells assessed as cell growth at 1 uM incubated for 48 hrs by sulforhodamine B assay relative to control; conditions: DU-145, 48 h, read-out: Activity
[13] = system: MDA-MB-468; assay: Cytotoxicity against human MDA-MB-468 cells assessed as cell growth at 0.01 uM incubated for 48 hrs by sulforhodamine B assay relative to control; conditions: MDA-MB-468, 48 h, read-out: Activity
[14] = system: MDA-MB-468; assay: Cytotoxicity against human MDA-MB-468 cells assessed as cell growth at 10 uM incubated for 48 hrs by sulforhodamine B assay relative to control; conditions: MDA-MB-468, 48 h, read-out: Activity
[15] = system: TK-10; assay: Cytotoxicity against human TK10 cells assessed as cell growth at 0.1 uM incubated for 48 hrs by sulforhodamine B assay relative to control; conditions: TK-10, 48 h, read-out: Activity
[16] = system: DU-145; assay: Cytotoxicity against human DU145 cells incubated for 48 hrs by sulforhodamine B assay; conditions: DU-145, 48 h
[17] = system: Hs-578T; assay: Cytotoxicity against human Hs 578T cells incubated for 48 hrs by sulforhodamine B assay
[18] = system: NCI-H226; assay: Cytotoxicity against human NCI-H226 cells assessed as cell growth at 100 uM incubated for 48 hrs by sulforhodamine B assay relative to control; conditions: NCI-H226, 48 h, read-out: Activity
[19] = read-out: LC50 (the source's name)
[20] = read-out: pLC50 (the source's name) (converted)

Q: Which growth at 1 µM [1] does the source give for `COc1ccc(-c2nocc2-c2cc(OC)c(OC)c(OC)c2)cc1` here?
A: 37%

Q: What about the growth at 0.1 µM [2] of the same compound?
A: 54%

Q: And the growth at 100 µM [3]?
A: -10%

Q: And the growth at 0.1 µM [4]?
A: 86%

Q: What about the growth at 0.01 µM [5] of the same compound?
A: 100%

Q: And the growth at 1 µM [6]?
A: 28%

Q: And the growth at 1 µM [7]?
A: 49%

Q: What about the growth at 100 µM [8] of the same compound?
A: -21%

Q: What about the growth at 10 µM [9] of the same compound?
A: 26%

Q: And the growth at 0.01 µM [10]?
A: 85%

Q: And the growth at 1 µM [11]?
A: 24%

Q: What about the growth at 1 µM [12] of the same compound?
A: 17%

Q: What about the growth at 0.01 µM [13] of the same compound?
A: 94%

Q: What about the growth at 10 µM [14] of the same compound?
A: 3%

Q: And the growth at 0.1 µM [15]?
A: 46%

Q: What about the GI50 ([16]; read-out: GI50) of the same compound?
A: 0.244 µM

Q: What about the CC50 [16, 19] of the same compound?
A: > 100 µM

Q: What about the TGI ([16]; read-out: TGI) of the same compound?
A: > 100 µM

Q: And the GI50 ([16]; read-out: pGI50 (converted))?
A: 0.245 µM

Q: And the CC50 [16, 20]?
A: > 100 µM

Q: And the TGI ([16]; read-out: pTGI)?
A: > 100 µM

Q: And the GI50 ([17]; read-out: GI50)?
A: 0.396 µM

Q: And the CC50 [17, 19]?
A: > 100 µM

Q: And the TGI ([17]; read-out: TGI)?
A: > 100 µM

Q: What about the GI50 ([17]; read-out: pGI50 (converted)) of the same compound?
A: 0.398 µM

Q: And the CC50 [17, 20]?
A: > 100 µM

Q: And the TGI ([17]; read-out: pTGI)?
A: > 100 µM

Q: And the growth at 100 µM [18]?
A: -20%
